For test [1], the system named is P. berghei ANKA strain. The experiment in a line: animal or person. The note with it: for average survival time of all mice receiving the compound: over both experiments, artemether: combination therapy groups. It is filed as in vivo. The method, then:
Nearly all of the two-carbon linked dimer analogs were evaluated in Plasmodium berghei infected mice using a 60-day survival study. Each trioxane (0.64 mg) and mefloquine hydrochloride (1.92 mg) were dissolved in 100 μL of 7:3 Tween:EtOH mixture, and the mixture was further diluted with 965 μL of water (total volume of 1065 μL). Twenty-four hours after infection with P. berghei ANKA strain (2×10^7 parasitized erythrocytes), each of four 5-week old C57BL/6J mice (Jackson Laboratory, weighing approximately 20 g each) received 200 μL of the trioxane solution via oral gavage, corresponding to a dose of 6 mg/kg of trioxane and 18 mg/kg of mefloquine hydrochloride. Blood parasitemia levels and duration of animal survival as compared to survival time of animals receiving no drug were monitored, both being widely accepted measures of a drug's antimalarial efficacy.
A second mouse experiment was initiated to further evaluate several of the lead compounds. An alternative adjuvant to establish a broader understanding of the efficacy of these compounds also was evaluated. […] As summarized in Table 2, all of the lead compounds outperformed the drug artemether (4b), which prolonged survival to an average of 38.5 days and 19.0 days in combination with mefloquine and lumefantrine, respectively. One mouse receiving dimer methyl oxime Z-29 and mefloquine died early in the experiment (day 16) while the other three lived to day 60, an average of 49.0 days. Dimer methyl oxime Z-29 was, however, was marginally effective in combination with lumefantrine (26.3 day average) and not effective as a monotherapy, with an average survival time (8.3 days) similar to that of infected mice receiving no drug (8.8 days). Dimer allyl oxime 30 was efficacious in all three groups, extending survival time to 49.0 days, 41.3 days, and 46.8 days in combination with mefloquine, lumefantrine, or as a monotherapy, respectively. […] One mouse receiving mefloquine combination died at an extended time point (35 days) while the other three survived the entire 60 days, an average of 53.8 days. All four mice receiving lumefantrine combination survived the entire 60 days. […] The monotherapy dose prolonged survival time to 46.8 days, similar to that of dimer allyl oxime 30.

Test [2] relates to P388 leukemia. The note with it: NCI Report, tested on 25 Oct. 1983; cited from earlier work.
For test [3], the system named is cell line panels consisting of 60 lines (nine disease-related subpanels). The note with it: 60 cell lines; cited from earlier work.
Setting [4] is: Table 2, trioxane 6 mg/kg + mefloquine 18 mg/kg.
Setting [5] is: Table 1, trioxane 6 mg/kg + Mef-HCl 18 mg/kg, single oral dose.
The mark [6] stands for this setting: Table 1, trioxane 6 mg/kg + Mef-HCl 18 mg/kg, determined on day 3 post infection.
Setting [7] is: Table 2, trioxane 6 mg/kg + lumefantrine 18 mg/kg.
Where [8] appears, read: Table 2, trioxane 150 mg/kg, adjuvant none (monotherapy).
[9] abbreviates: first experiment, trioxane 6 mg/kg + mefloquine hydrochloride 18 mg/kg, four mice.

Take `CO/N=C(\C[C@H]1O[C@H](OC)[C@@]23OC(C)C2C(C)C[C@H]3[C@H]1C)[C@H]1O[C@H](OC)[C@@]23OC(C)C2C(C)C[C@H]3[C@H]1C` (stereo partly drawn) [E-29, Dimer O-Methyl Oxime]: in test [1] (setting [4]), the “% parasitemia suppression” value was over 99.9% and the “survival after infection avg” value was 37.0 days.
Turning to `CO/N=C(/C[C@H]1O[C@H](OC)[C@@]23OC(C)C2C(C)C[C@H]3[C@H]1C)[C@H]1O[C@H](OC)[C@@]23OC(C)C2C(C)C[C@H]3[C@H]1C` (stereo partly drawn) [Z-29, Dimer O-Methyl Oxime], in test [1] (Plasmodium berghei, in Mus musculus, po, Table 2, trioxane 150 mg/kg, adjuvant none (monotherapy), read-out: % parasitemia suppression), the inhibition in vivo at 150 mg/kg is 98%. In addition, the “survival after infection avg” value in test [1] (setting [5]) is 60.0 days; in test [1] (setting [7]), 26.3 days; in test [1] (setting [4]), 49.0 days; in test [1] (setting [8]), 8.3 days. For the same compound, the “% parasitemia suppression” value in test [1] (setting [6]), in test [1] (setting [7]) and in test [1] (setting [4]) was over 99.9% in each case. The cure of mice entry in test [1] (setting [9]) was “complete cures of all four mice”.
With `CO[C@H]1O[C@@H]2O[C@@]3(C)CC[C@H]4[C@H](C)CC[C@@H]([C@H]1C)[C@@]24OO3` [artemether (4b), artemether, reference compound], the entries for the “survival after infection avg” value in test [1] (setting [5]), in test [1] (setting [7]) and in test [1] (setting [4]) were 40.0 days, 19.0 days and 38.5 days, respectively. For the same compound, the “% parasitemia suppression” value in test [1] (setting [6]), in test [1] (setting [7]) and in test [1] (setting [4]) was over 99.9% throughout. In addition, the “average survival time of all mice receiving the compound” value in test [1] came to 31.7 days.
With `C[C@@H]1CC[C@H]2[C@@H](C)C(=O)O[C@@H]3O[C@@]4(C)CC[C@@H]1[C@]32OO4` [artemisinin], in test [2], the “activity against P388 leukemia” value was “inactive”. Also, in test [3], the anticancer activity result was “modest anticancer activity”.
In the case of `C[C@H]1[C@@H](C(=O)C[C@H]2O[C@@H]3O[C@]4(C)CC[C@H]5[C@H](C)CC[C@@H]([C@H]2C)[C@@]35OO4)O[C@@H]2O[C@]3(C)CC[C@H]4[C@H](C)CC[C@@H]1[C@@]24OO3` [compound 24, Artemisinin Two-Carbon Linked Dimer Ketone], in test [1] (setting [5]), the “survival after infection avg” value is 48.3 days. In test [1] (setting [6]), the “% parasitemia suppression” value is recorded as over 99.9%.
As for `CO[C@H]1O[C@H](/C(C[C@H]2O[C@H](OC)[C@@]34OC(C)C3C(C)C[C@H]4[C@H]2C)=N\O)[C@H](C)[C@@H]2CC(C)C3C(C)O[C@@]312` (stereo partly drawn) [compound 28, Dimer Oxime], in test [1] (setting [5]), the “survival after infection avg” value came to 52.5 days. The “% parasitemia suppression” value in test [1] (setting [6]) is over 99.9%.
For the compound `C[C@H]1[C@@H](/C(C[C@H]2O[C@@H]3O[C@@]4(C)CC[C@H]5[C@H](C)CC[C@@H]([C@H]2C)[C@@]35OO4)=N\OCC2CC2)O[C@@H]2O[C@@]3(C)CC[C@H]4[C@H](C)CC[C@@H]1[C@@]24OO3` [compound 31, dimer O-methylcyclopropyl oxime], in test [1] (setting [4]), the “% parasitemia suppression” value is over 99.9% and the “survival after infection avg” value is listed as 41 days.
As for `C[C@H]1[C@@H](/C(C[C@H]2O[C@@H]3O[C@@]4(C)CC[C@H]5[C@H](C)CC[C@@H]([C@H]2C)[C@@]35OO4)=N\OC(C)(C)C)O[C@@H]2O[C@@]3(C)CC[C@H]4[C@H](C)CC[C@@H]1[C@@]24OO3` [compound 33, dimer tert-butyl oxime], in test [1] (setting [4]), the “% parasitemia suppression” value is over 99.9% and the “survival after infection avg” value came out at 23.8 days.
As for `C#CCO/N=C(/C[C@H]1O[C@@H]2O[C@@]3(C)CC[C@H]4[C@H](C)CC[C@@H]([C@H]1C)[C@@]24OO3)[C@H]1O[C@@H]2O[C@@]3(C)CC[C@H]4[C@H](C)CC[C@@H]([C@H]1C)[C@@]24OO3` [compound 34, dimer propargyl oxime], the inhibition in vivo at 6 mg/kg in test [1] (Plasmodium berghei, in Mus musculus, po, Table 2, as printed: trioxane 6 mg/kg, adjuvant none, dose 18, read-out: % parasitemia suppression) is over 99.9%. For the same compound, the “survival after infection avg” value in test [1] (setting [5]) was found to be 60.0 days; in test [1] (Table 2, as printed: trioxane 6 mg/kg, adjuvant none, dose 18), 46.8 days; in test [1] (setting [7]) it was 60.0 days; in test [1] (setting [4]) it was 53.8 days; in test [1] (setting [8]), 46.8 days. Further, the “% parasitemia suppression” value in test [1] (setting [6]), in test [1] (setting [7]) and in test [1] (setting [4]) was over 99.9% in each case. Moreover, the “survival after infection” value in test [1] (Table 2, trioxane 6 mg/kg + lumefantrine 18 mg/kg, single oral dose) stood at 60 days. Besides, the cure of mice entry in test [1] (setting [9]) is given as “complete cures of all four mice”; in test [1] (two separate experiments, in combination with two different adjuvants (mefloquine and lumefantrine)), “complete cure”. Also, the “average survival time of all mice receiving the compound” value in test [1] came out at 55.1 days.
On to `C[C@H]1[C@@H](/C(C[C@H]2O[C@@H]3O[C@@]4(C)CC[C@H]5[C@H](C)CC[C@@H]([C@H]2C)[C@@]35OO4)=N\OC(=O)N(C)C)O[C@@H]2O[C@@]3(C)CC[C@H]4[C@H](C)CC[C@@H]1[C@@]24OO3` [compound 35, dimer oxime dimethylcarbamate], for which the “survival after infection avg” value in test [1] (setting [5]) is on record as 51.8 days. Further, the “% parasitemia suppression” value in test [1] (setting [6]) is listed as over 99.9%.
In the same order, the values of `CC(=O)O/N=C(/C[C@H]1O[C@@H]2O[C@@]3(C)CC[C@H]4[C@H](C)CC[C@@H]([C@H]1C)[C@@]24OO3)[C@H]1O[C@@H]2O[C@@]3(C)CC[C@H]4[C@H](C)CC[C@@H]([C@H]1C)[C@@]24OO3` [compound 36, dimer oxime acetate] are 27.3 days and over 99.9%.

Source of the values: patent publication US9487538B2, “Two-carbon linked artemisinin-derived trioxane dimers” (THE JOHNS HOPKINS UNIVERSITY, priority 2013, dated 2016).
